The numbers were not newly measured in patent US20050158775A1, “Novel plamid DNA comprising reoprter gene DNA and use of the same” (priority 1997, published 2005), which cites them from elsewhere.

The data set concerns PPAR γ. As to conditions: at a concentration of 10 μM or less; cited from earlier work.

Regarding `CCCCC[C@H](O)/C=C/[C@@H]1[C@H]2C/C(=C/CCCC(=O)O)C[C@H]2C[C@H]1O` [carbacyclin], the “PPAR γ agonist activity” value is on record as “does not show PPAR γ agonist activity”.
